Measurements: the NIST ThermoML archive (doi:10.1016/j.jct.2003.12.012)

Experiments:
[1] = for mass density / vapor or sublimation pressure: Liquid; for mass density: Vibrating tube method
[2] = Molar enthalpy of transition or fusion; conditions: Crystal; Adiabatic calorimetry
[3] = molar heat capacity at saturation pressure

c1ccc2c3c(sc2c1)CCCC3 [1,2,3,4-tetrahydrodibenzothiophene]
[1]
Conditions | mass density [kg/m3]
323.14 K | 1125.7
348.13 K | 1105.2
373.12 K | 1086
423.11 K | 1046.8
448.11 K | 1028.1

[1]
Conditions | Triple point temperature [K] | vapor or sublimation pressure [kPa]
359.98 K, Inclined piston gauge | – | 0.0221
369.98 K, Inclined piston gauge | – | 0.0414
379.97 K, Inclined piston gauge | – | 0.0746
389.97 K, Inclined piston gauge | – | 0.1296
400.17 K, Inclined piston gauge | – | 0.2209
409.96 K, Inclined piston gauge | – | 0.3567
419.97 K, Inclined piston gauge | – | 0.5674
429.96 K, Inclined piston gauge | – | 0.8785
439.96 K, Inclined piston gauge | – | 1.328
449.96 K, Inclined piston gauge | – | 1.962
450.48 K, Ebulliometric method (Recirculating still) | – | 2.002
454.96 K, Inclined piston gauge | – | 2.368
459.96 K, Inclined piston gauge | – | 2.842
469.6 K, Ebulliometric method (Recirculating still) | – | 3.993
478.25 K, Ebulliometric method (Recirculating still) | – | 5.331
491.02 K, Ebulliometric method (Recirculating still) | – | 8
500.6 K, Ebulliometric method (Recirculating still) | – | 10.67
508.29 K, Ebulliometric method (Recirculating still) | – | 13.32
516.36 K, Ebulliometric method (Recirculating still) | – | 16.66
523.05 K, Ebulliometric method (Recirculating still) | – | 19.94
531.82 K, Ebulliometric method (Recirculating still) | – | 25.02
540.67 K, Ebulliometric method (Recirculating still) | – | 31.18
549.55 K, Ebulliometric method (Recirculating still) | – | 38.56
558.49 K, Ebulliometric method (Recirculating still) | – | 47.38
567.47 K, Ebulliometric method (Recirculating still) | – | 57.8
576.48 K, Ebulliometric method (Recirculating still) | – | 70.09
585.54 K, Ebulliometric method (Recirculating still) | – | 84.5
594.67 K, Ebulliometric method (Recirculating still) | – | 101.29
603.84 K, Ebulliometric method (Recirculating still) | – | 120.72
Crystal, Adiabatic calorimetry | 275.03 | –

Conditions | Molar enthalpy of transition or fusion [kcal/mol]
[2] | 3.348

molar heat capacity [J/K/mol], [3]
Conditions | Crystal | Liquid
4.929 K, Vacuum adiabatic calorimetry | 0.32 | –
5 K, Vacuum adiabatic calorimetry | 0.33 | –
5.867 K, Vacuum adiabatic calorimetry | 0.56 | –
6.798 K, Vacuum adiabatic calorimetry | 0.931 | –
7.734 K, Vacuum adiabatic calorimetry | 1.41 | –
8.759 K, Vacuum adiabatic calorimetry | 2.08 | –
9.819 K, Vacuum adiabatic calorimetry | 2.94 | –
10 K, Vacuum adiabatic calorimetry | 3.08 | –
10.94 K, Vacuum adiabatic calorimetry | 3.96 | –
12.2 K, Vacuum adiabatic calorimetry | 5.23 | –
13.6 K, Vacuum adiabatic calorimetry | 6.8 | –
15.14 K, Vacuum adiabatic calorimetry | 8.647 | –
16.83 K, Vacuum adiabatic calorimetry | 10.74 | –
18.67 K, Vacuum adiabatic calorimetry | 13.06 | –
20 K, Vacuum adiabatic calorimetry | 14.74 | –
20.68 K, Vacuum adiabatic calorimetry | 15.6 | –
22.91 K, Vacuum adiabatic calorimetry | 18.38 | –
25.4 K, Vacuum adiabatic calorimetry | 21.41 | –
28.17 K, Vacuum adiabatic calorimetry | 24.67 | –
30 K, Vacuum adiabatic calorimetry | 26.76 | –
31.26 K, Vacuum adiabatic calorimetry | 28.16 | –
34.71 K, Vacuum adiabatic calorimetry | 31.86 | –
38.53 K, Vacuum adiabatic calorimetry | 35.74 | –
40 K, Vacuum adiabatic calorimetry | 37.17 | –
42.79 K, Vacuum adiabatic calorimetry | 39.83 | –
47.54 K, Vacuum adiabatic calorimetry | 44.15 | –
50 K, Vacuum adiabatic calorimetry | 46.29 | –
52.85 K, Vacuum adiabatic calorimetry | 48.69 | –
58.73 K, Vacuum adiabatic calorimetry | 53.4 | –
59.8 K, Vacuum adiabatic calorimetry | 54.26 | –
60 K, Vacuum adiabatic calorimetry | 54.39 | –
65.16 K, Vacuum adiabatic calorimetry | 58.28 | –
65.33 K, Vacuum adiabatic calorimetry | 58.42 | –
70 K, Vacuum adiabatic calorimetry | 61.88 | –
71.56 K, Vacuum adiabatic calorimetry | 63.02 | –
78.46 K, Vacuum adiabatic calorimetry | 67.87 | –
80 K, Vacuum adiabatic calorimetry | 68.94 | –
85.75 K, Vacuum adiabatic calorimetry | 72.84 | –
90 K, Vacuum adiabatic calorimetry | 75.67 | –
90.98 K, Vacuum adiabatic calorimetry | 76.33 | –
93.89 K, Vacuum adiabatic calorimetry | 78.25 | –
99.3 K, Vacuum adiabatic calorimetry | 81.84 | –
100 K, Vacuum adiabatic calorimetry | 82.3 | –
108.29 K, Vacuum adiabatic calorimetry | 87.72 | –
117.93 K, Vacuum adiabatic calorimetry | 93.99 | –
120 K, Vacuum adiabatic calorimetry | 95.28 | –
127.8 K, Vacuum adiabatic calorimetry | 100.49 | –
138.76 K, Vacuum adiabatic calorimetry | 107.84 | –
140 K, Vacuum adiabatic calorimetry | 108.6 | –
150.73 K, Vacuum adiabatic calorimetry | 116.11 | –
160 K, Vacuum adiabatic calorimetry | 122.46 | –
162.76 K, Vacuum adiabatic calorimetry | 124.52 | –
174.79 K, Vacuum adiabatic calorimetry | 133.17 | –
180 K, Vacuum adiabatic calorimetry | 136.76 | –
186.82 K, Vacuum adiabatic calorimetry | 141.95 | –
198.84 K, Vacuum adiabatic calorimetry | 151.12 | –
199.7 K, Vacuum adiabatic calorimetry | 151.8 | –
200 K, Vacuum adiabatic calorimetry | 151.75 | –
210.84 K, Vacuum adiabatic calorimetry | 160.54 | –
212.28 K, Vacuum adiabatic calorimetry | 161.67 | –
220 K, Vacuum adiabatic calorimetry | 167.35 | –
222.84 K, Vacuum adiabatic calorimetry | 170.12 | –
225.76 K, Vacuum adiabatic calorimetry | 172.63 | –
232.14 K, Vacuum adiabatic calorimetry | 177.99 | –
234.83 K, Vacuum adiabatic calorimetry | 180.25 | –
238.71 K, Vacuum adiabatic calorimetry | 183.61 | –
240 K, Vacuum adiabatic calorimetry | 183.48 | –
247.47 K, Vacuum adiabatic calorimetry | 192.11 | –
249.42 K, Vacuum adiabatic calorimetry | 193.97 | –
251.32 K, Vacuum adiabatic calorimetry | 196.13 | –
260 K, Vacuum adiabatic calorimetry | 200.99 | –
262.17 K, Vacuum adiabatic calorimetry | 216.81 | –
263.64 K, Vacuum adiabatic calorimetry | 221.51 | –
263.71 K, Vacuum adiabatic calorimetry | 222.9 | –
275.03 K, Vacuum adiabatic calorimetry | 216.13 | 256.66
280 K, Vacuum adiabatic calorimetry | – | 259.07
282.32 K, Vacuum adiabatic calorimetry | – | 260.24
283.78 K, Vacuum adiabatic calorimetry | – | 260.98
287.63 K, Vacuum adiabatic calorimetry | – | 262.81
291.46 K, Vacuum adiabatic calorimetry | – | 264.72
298.15 K, Vacuum adiabatic calorimetry | – | 268.09
300 K, Vacuum adiabatic calorimetry | – | 269.02
300.54 K, Vacuum adiabatic calorimetry | – | 269.29
301.1 K, Vacuum adiabatic calorimetry | – | 269.61
315.41 K, Vacuum adiabatic calorimetry | – | 277.04
320 K, Vacuum adiabatic calorimetry | – | 279.47
330.79 K, Vacuum adiabatic calorimetry | – | 285.2
340 K, Vacuum adiabatic calorimetry | – | 290.16
343.22 K, Vacuum adiabatic calorimetry | – | 291.9
359.69 K, Vacuum adiabatic calorimetry | – | 300.83
360 K, Vacuum adiabatic calorimetry | – | 301
376.04 K, Vacuum adiabatic calorimetry | – | 309.7
380 K, Vacuum adiabatic calorimetry | – | 311.85
392 K, Vacuum adiabatic calorimetry | – | 318.35
400 K, Vacuum adiabatic calorimetry | – | 322.67
408.31 K, Vacuum adiabatic calorimetry | – | 327.12
420 K, Vacuum adiabatic calorimetry | – | 333.33
424.94 K, Vacuum adiabatic calorimetry | – | 335.95
437.47 K, Vacuum adiabatic calorimetry | – | 342.54
440 K, Small sample (50 mg) DSC | – | 344.04
460 K, Small sample (50 mg) DSC | – | 355.38
480 K, Small sample (50 mg) DSC | – | 366.09
500 K, Small sample (50 mg) DSC | – | 376.9
520 K, Small sample (50 mg) DSC | – | 387.66
540 K, Small sample (50 mg) DSC | – | 398.39
560 K, Small sample (50 mg) DSC | – | 409.11
580 K, Small sample (50 mg) DSC | – | 419.8
600 K, Small sample (50 mg) DSC | – | 430.43
